Test [1] concerns the target T1, human B1R (bradykinin receptor 1) (Homo sapiens, UniProt P46663).
T1 construct: expressed in transfected cells; host or cells: CHO K1 cells
T1 sequence (P46663 1-353): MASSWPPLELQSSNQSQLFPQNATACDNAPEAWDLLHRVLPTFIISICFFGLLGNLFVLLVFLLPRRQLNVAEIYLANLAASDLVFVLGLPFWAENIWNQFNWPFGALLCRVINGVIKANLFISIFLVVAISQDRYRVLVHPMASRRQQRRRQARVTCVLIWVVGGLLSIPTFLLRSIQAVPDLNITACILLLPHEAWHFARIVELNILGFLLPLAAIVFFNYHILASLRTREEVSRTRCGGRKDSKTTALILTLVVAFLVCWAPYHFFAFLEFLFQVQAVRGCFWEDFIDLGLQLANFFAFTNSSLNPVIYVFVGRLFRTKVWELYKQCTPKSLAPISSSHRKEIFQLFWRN
In words: FLIPR Ca2+ assay (Fluo-4) on CHO K1 cells stably transfected with the human B1R gene (hB1R cells): % inhibition at 10 μM / IC50, agonist Lys-Des-Arg9-bradykinin. To be noted: CHO-K1, human B1R. It is filed as cell-based. The gist of the method: (§1)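 Stably transfected CHO K1 cells loaded with Fluo-4 and read on FLIPR (λex 488, λem 540 nm; peak fluorescence). Test substance (10 μM) added first, then after 10–20 min the agonist at EC80; % inhibition versus maximum achievable inhibition. IC50 from several concentrations, n=2–3, N≥2.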

In test [2] the target is T2, rat B1R (bradykinin receptor 1) (Rattus norvegicus, UniProt P97583).
T2 construct: expressed in transfected cells; host or cells: CHO K1 cells
T2 sequence (P97583 1-337): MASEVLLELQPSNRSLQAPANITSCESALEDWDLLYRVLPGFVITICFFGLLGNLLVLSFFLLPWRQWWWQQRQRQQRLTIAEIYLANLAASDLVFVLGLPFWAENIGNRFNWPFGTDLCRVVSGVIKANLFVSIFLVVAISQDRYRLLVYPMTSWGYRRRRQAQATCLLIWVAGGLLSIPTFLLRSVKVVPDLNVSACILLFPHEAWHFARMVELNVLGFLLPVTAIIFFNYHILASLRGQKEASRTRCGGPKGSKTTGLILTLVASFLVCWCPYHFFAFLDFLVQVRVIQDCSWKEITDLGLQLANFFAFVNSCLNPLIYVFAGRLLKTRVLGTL
The experiment in a line: FLIPR Ca2+ assay (Fluo-4) on CHO K1 cells stably transfected with the B1R gene of the rat (rB1R cells): % inhibition at 10 μM / IC50, agonist Des-Arg9-bradykinin. In kind it is cell-based. To be noted: CHO-K1, rat B1R. The gist of the method: as §1

With `O=C(N[C@@H]1CCc2c(C(=O)N3CCC4(CC3)CCN(c3ccncc3)CC4)cccc21)c1ccccc1Cl` [Example H-164, 2-Chloro-N-[(1R)-4-(9-pyridin-4-yl-3,9-diazaspiro[5.5]undecane-3-carbonyl)-2,3-dihydro-1H-inden-1-yl]-benzamide], the figures for the inhibition at 10 µM in test [1] and in test [2] were 25% and 77%, respectively.
The like results for `COc1cc(C)c(S(=O)(=O)NC2CCc3ccc(C(=O)N4CCC5(CC4)CCN(c4ccncc4)C5)cc32)c(C)c1` (stereo not shown) [Ind_CC-050, 4-methoxy-2,6-dimethyl-N-[6-(2-pyridin-4-yl-2,8-diazaspiro[4.5]decane-8-carbonyl)-2,3-dihydro-1H-inden-1-yl]-benzenesulfonic acid amide] were, in that order, 100% and 93%.
Taken in the same sequence, the figures for `Cn1cncc1CN1CCC2(CC1)CCN(C(=O)c1ccc3c(c1)C(NC(=O)c1ccccc1Cl)CC3)CC2` (stereo not shown) [IND_CC-526, 2-Chloro-N-[6-[9-[(3-methyl-3H-imidazol-4-yl)-methyl]-3,9-diazaspiro[5.5]undecane-3-carbonyl]-2,3-dihydro-1H-inden-1-yl]-benzamide] were 25% and 87%.
The like results for `O=C(Cc1ccccc1Cl)NC1CCc2ccc(C(=O)N3CCC4(CC3)CCN(c3ccncc3)CC4)cc21` (stereo not shown) [Ind_CC-007, 2-(2-chlorophenyl)-N-[6-(9-pyridin-4-yl-3,9-diazaspiro[5.5]undecane-3-carbonyl)-2,3-dihydro-1H-inden-1-yl]-acetamide] were, in that order, 99% and 102%.
On to `O=C(N[C@@H]1CCc2ccc(C(=O)N3CCC4(CC3)CCN(c3ccncc3)CC4)cc21)c1ccccc1F` [Example H-102, 2-Fluoro-N-[(1R)-6-(9-pyridin-4-yl-3,9-diazaspiro[5.5]undecane-3-carbonyl)-2,3-dihydro-1H-inden-1-yl]-benzamide], for which the values for the inhibition at 10 µM in test [1] and in test [2] were 100% and 109%, respectively.
As to `O=C(NC1CCc2ccc(C(=O)N3CCC4(CC3)CCN(c3ccncc3)C4)cc21)c1cc(F)ccc1Cl` (stereo not shown) [IND_CC-221, 2-Chloro-5-fluoro-N-[6-(2-pyridin-4-yl-2,8-diazaspiro[4.5]decane-8-carbonyl)-2,3-dihydro-1H-inden-1-yl]-benzamide], the inhibition (commonly the drop in the measured response relative to a control, in per cent) at 10 µM in test [1] came out at 100%; in test [2], 104%.
Taken in the same sequence, the figures for `CN(C(=O)c1ccccc1Cl)C1CCc2ccc(C(=O)N3CCC4(CC3)CCN(c3ccncc3)CC4)cc21` (stereo not shown) [Ind_CC-106, 2-chloro-N-methyl-N-[6-(9-pyridin-4-yl-3,9-diazaspiro[5.5]undecane-3-carbonyl)-2,3-dihydro-1H-inden-1-yl]-benzamide] were 100% and 100%.
The like results for `COc1cc(C)c(C(=O)NC2CCc3ccc(C(=O)N4CCC5(CCN(Cc6ccncc6)CC5)CC4)cc32)c(C)c1` (stereo not shown) [Ind_CC-092, 4-methoxy-2,6-dimethyl-N-[6-[9-(pyridin-4-yl-methyl)-3,9-diazaspiro[5.5]undecane-3-carbonyl]-2,3-dihydro-1H-inden-1-yl]-benzamide] were, in that order, 78% and 101%.
As to `O=C(N[C@@H]1CCCc2ccc(C(=O)N3CCCC4(CCN(c5ccncc5)C4)C3)cc21)c1ccccc1Cl` (stereo partly drawn) [Example H-70, 2-Chloro-N-[(1R)-7-(2-pyridin-4-yl-2,9-diazaspiro[4.5]decane-9-carbonyl]-1,2,3,4-tetrahydro-naphthalen-1-yl]-benzamide], the figures for the inhibition at 10 µM in test [1] and in test [2] were 90% and 103%, respectively.
Consider `O=C(NCc1ccccc1Cl)NC1CCc2ccc(C(=O)N3CCC4(CCN(c5ccncc5)CC4)C3)cc21` (stereo not shown) [Ind_CC-086, 1-[(2-chlorophenyl)-methyl]-3-[6-(8-pyridin-4-yl-2,8-diazaspiro[4.5]decane-2-carbonyl)-2,3-dihydro-1H-inden-1-yl]-urea], for which the inhibition at 10 µM in test [1] came to 100%; in test [2], 99%.
Consider `CN(C(=O)c1ccc(Cl)cc1Cl)C1CCc2ccc(C(=O)N3CCC4(CC3)CCN(c3ccncc3)CC4)cc21` (stereo not shown) [Ind_CC-018, 2,4-dichloro-N-methyl-N-[6-(9-pyridin-4-yl-3,9-diazaspiro[5.5]undecane-3-carbonyl)-2,3-dihydro-1H-inden-1-yl]-benzamide], for which the inhibition at 10 µM in test [1] and in test [2] was 98% in each case.
For the compound `COc1cc(C)c(S(=O)(=O)N[C@@H]2CCCc3ccc(C(=O)N4CCC5(CC4)CCN(c4ccncc4)CC5)cc32)c(C)c1` [Example H-17, 4-methoxy-2,6-dimethyl-N-[(1R)-7-(9-pyridin-4-yl-3,9-diazaspiro[5.5]undecane-3-carbonyl)-1,2,3,4-tetrahydro-naphthalen-1-yl]-benzenesulfonic acid amide], the results for the inhibition at 10 µM in test [1] and in test [2] were 98% and 102%, respectively.
As to `O=C(NC1CCc2ccc(C(=O)N3CCC4(CCC(Oc5ccncc5)CC4)CC3)cc21)c1ccccc1Cl` (stereo not shown) [Example H-08], the inhibition at 10 µM was determined as 71% in test [1] and 100% in test [2].
The like results for `O=C(N[C@@H]1CCc2ccc(C(=O)N3CCC4(CCN(c5ccncc5)CC4)C3)cc21)c1c(Cl)cccc1C(F)(F)F` [Example H-76, 2-Chloro-N-[(1R)-6-(8-pyridin-4-yl-3,8-diazaspiro[4.5]decane-3-carbonyl)-2,3-dihydro-1H-inden-1-yl]-6-(trifluoromethyl)-benzamide] were, in that order, 100% and 102%.
The like results for `O=C(NC1CCc2ccc(C(=O)N3CCC4(CCN(c5ccncc5)CC4)C3)cc21)C(c1ccccc1)c1ccccc1Cl` (stereo not shown) [Ind_CC-082, 2-(2-chlorophenyl)-2-phenyl-N-[6-(8-pyridin-4-yl-3,8-diazaspiro[4.5]decane-3-carbonyl)-2,3-dihydro-1H-inden-1-yl]-acetamide] were, in that order, 100% and 101%.
Taken in the same sequence, the figures for `O=C(NC1CCc2ccc(C(=O)N3CCC4(CC3)CCN(c3ccncc3)CC4)cc21)c1cccc(C(F)(F)F)c1Cl` (stereo not shown) [IND_CC-232, 2-Chloro-N-[6-(9-pyridin-4-yl-3,9-diazaspiro[5.5]undecane-3-carbonyl)-2,3-dihydro-1H-inden-1-yl]-3-(trifluoromethyl)-benzamide] were 96% and 101%.
In the case of `O=C(N[C@@H]1CCCc2ccc(C(=O)N3CCC4(CCCN(c5ccncc5)C4)CC3)cc21)c1ccccc1Cl` [Example H-80], the inhibition at 10 µM in test [1] is 57%; in test [2], 105%.
Turning to `O=C(NC1CCc2ccc(C(=O)N3CCC4(CC3)CCN(c3ccncc3)CC4)cc21)c1cccc(Cl)c1Cl` (stereo not shown) [IND_CC-266, 2,3-Dichloro-N-[6-(9-pyridin-4-yl-3,9-diazaspiro[5.5]undecane-3-carbonyl)-2,3-dihydro-1H-inden-1-yl]-benzamide], the inhibition at 10 µM was 98% in test [1] and 106% in test [2].
The like results for `O=C(c1ccc2c(c1)C(N(C(=O)c1ccccc1Cl)C1CC1)CC2)N1CCC2(CCN(c3ccncc3)CC2)C1` (stereo not shown) [Ind_CC-118, 2-chloro-N-cyclopropyl-N-[6-(8-pyridin-4-yl-2,8-diazaspiro[4.5]decane-2-carbonyl)-2,3-dihydro-1H-inden-1-yl]-benzamide] were, in that order, 100% and 103%.
Taken in the same sequence, the figures for `O=C(NC1CCc2ccc(C(=O)N3CCC4(CC3)CCN(c3ccncc3)C4)cc21)C(c1ccccc1)c1ccccc1Cl` (stereo not shown) [Ind_CC-051, 2-(2-chlorophenyl)-2-phenyl-N-[6-(2-pyridin-4-yl-2,8-diazaspiro[4.5]decane-8-carbonyl)-2,3-dihydro-1H-inden-1-yl]-acetamide] were 71% and 99%.
For `CC1(C)CC(NC(=O)NCc2ccccc2Cl)c2cc(C(=O)N3CCC4(CC3)CCN(c3ccncc3)CC4)ccc21` (stereo not shown) [Ind_CC-061, 1-[(2-chlorophenyl)-methyl]-3-[3,3-dimethyl-6-(9-pyridin-4-yl-3,9-diazaspiro[5.5]undecane-3-carbonyl)-1,2-dihydro-inden-1-yl]-urea], the inhibition at 10 µM is 100% in test [1] and 103% in test [2].
With `CC1(C)Cc2ccc(C(=O)N3CCC4(CC3)CCN(c3ccncc3)CC4)cc2C1NC(=O)c1c(Cl)cccc1C(F)(F)F` (stereo not shown) [IND_CC-206, 2-Chloro-N-[2,2-dimethyl-6-(9-pyridin-4-yl-3,9-diazaspiro[5.5]undecane-3-carbonyl)-1,3-dihydro-inden-1-yl]-6-(trifluoromethyl)-benzamide], the inhibition at 10 µM in test [1] is 100%; in test [2], 103%.
Taken in the same sequence, the figures for `O=C(NC1CCc2ccc(C(=O)N3CCC4(CC3)CCN(c3ccncc3)CC4)cc21)c1cc(Cl)ccc1Cl` (stereo not shown) [IND_CC-207, 2,5-Dichloro-N-[6-(9-pyridin-4-yl-3,9-diazaspiro[5.5]undecane-3-carbonyl)-2,3-dihydro-1H-inden-1-yl]-benzamide] were 98% and 101%.

For the origin of these results see patent publication US8455475B2 (Gruenenthal GmbH, priority 2009, dated 2013).
